Experimental data taken from US9173898B2, “Methods of treating giardiasis” (THE UNITED STATES OF AMERICA, as represented by the …, priority 2010, dated 2015).
≈ marks a conversion by molar mass, not a printed value. Read-outs that look alike come from different tables or passages of the source.

Columns and labels:
G. lamblia GS isolate = test: ATP content assay against G. lamblia GS isolate; type: cell-based, Giardia lamblia
Procedure: (§1) For the viability assay in 1536-well format, 2 μL media was dispensed per well into 1536-well white solid-bottom plates using a Multidrop Combi dispenser (Thermo Scientific). Subsequently, 23 nL/well compound solutions or DMSO controls were dispensed to the assay plates containing media via a pintool workstation (Kalypsys, San Diego). Trophozoites were chilled on ice to detach from glass tubes, and unless otherwise noted, were diluted to 250,000 trophozoites/mL with ice cold media. The trophozoite suspension was kept on ice and dispensed as 4 μL/well with the Multidrop Combi dispenser. Attachment of trophozoites to dispensing apparatus was avoided with continuous dispensing and icing of the trophozoite suspension. The plates were covered with plastic low-evaporation lids, individually sealed in Type A Bio-Bags and incubated at 37° C. for 48 hours. Following incubation, 4 μL/well of ATPLite reagent was dispensed with the Multidrop Combi dispenser. The assay plates were briefly centrifuged at 1000 RPM and luminescence signal was detected on a ViewLux plate reader (PerkinElmer) after 20 min incubation at room temperature. Signal-to-basal (S/B) ratio, Z′ factor and coefficient of variation (CV) were calculated from 32 wells with 0.38% DMSO (total signal) and 32 well with 38.3 μM Mnz (basal signal).
As a further confirmatory step, some compounds that were commercially available were purchased as powder samples and tested against the G. lamblia GS isolate using both the ATP content and enumeration assays (Table 3).

[1] = tested on: Giardia lamblia GS isolate; test: Minimum Lethal Concentration (MLC) determination; type: cell-based; conditions: 3 days with compound, then 3 days regrowth without compound, tube without any live organisms
Procedure: Giardia lamblia GS isolate was used throughout the Minimal Lethal Concentration (MLC) experiments. Organisms were grown and maintained in TYI-S-33 medium supplemented with bile and antibiotics (Keister, 1983). Cidal activity was determined in 96-well culture plates (Corning Incorporated) followed by Giardia trophozoites regrowth in 8 ml tubes (Fisher Scientific). Dry compounds were dissolved in DMSO (Sigma) at stock concentration of 10 mM and then added to the growth media to ensure final DMSO concentration of no more than 0.5%. 100 μl of the compound solutions were placed in the wells by serial dilutions. 10 μl of Giardia trophozoites containing 10000 organisms were then added. Serial dilutions of metronidazole served as the positive control and the DMSO-containing medium served as the negative control. Plates were incubated under anaerobic conditions in sealed bags (Becton Dickinson and Company) at 37° C. for 3 days and surveyed visually under microscope to check survival, mobility and attachment of trophozoites. The plate was chilled on ice for 30 min and the entire contents of 4 wells in the growth/death transition were transferred into the 8 ml tubes containing growth media only (without the compound). After 3 days of incubation at 37° C., tubes were checked under microscope for any surviving trophozoites. MLC was attributed to the tube without any live organisms. See, e.g., Keister, D. B. 1983. Axenic culture of Giardia lamblia in TYI-S-33 medium supplemented with bile. Trans. Soc. Trop. Med. Hyg. 77:487-488.

[2] = tested on: Giardia lamblia GS isolate; test: Trophozoite enumeration assay; type: cell-based; conditions: G. lamblia GS isolate, 48 hrs, cell counting in hemocytometer
Procedure: Giardia lamblia GS isolate was plated into sterile 96-well black clear-bottom assay plates at 10,000 cells/well density and 120 μL/well volume in culture media. Compounds tested were prepared as 50 mM DMSO solutions in a 12 point 1:3 titration series in DMSO, with exceptions being carbadox, Bortezomib and BTO-1, which were used at 10 mM top concentration due to solubility limitations. Compound titration series were added to duplicate assay wells as 0.5 μL/well and the assay plates were incubated anaerobically in Type A Bio-Bag (BD Diagnostics) for 48 hrs at 37° C. Cell density was visually scored in each well and the 6 wells surrounding the visually determined IC50 concentrations were quantitated by cell counting. For enumeration, trophozoites were detached on ice for 30 min and resuspended via pipetting. 75 μL of culture was removed from each well, mixed with 65 μL of 0.4% Trypan Blue and 10 μL of 30% bleach (final concentration of 2% bleach) to immobilize trophozoites. Trophozoites were then counted in a hemocytometer.

Giardia WB = test: Giardia viability (ATP content) assay in 1536-well format; type: cell-based, Giardia lamblia; conditions: for EC50: 1536-well (FIG. 2a), read-out: Calculated EC50; for IC50: concentration at which 50% of DMSO control ATP levels are detected, 48 hours, 1536-well; for Giardia WB Efficacy / Emax: percent reduction in ATP levels compared with 38.3 mM Mnz at maximal compound concentration; for Emax: 48 h, read-out: Giardia WB Efficacy
Procedure: as §1
Assay miniaturization in 1,536-well plate format was undertaken to increase throughput and facilitate screening of large compound libraries. The volume of trophozoites suspension was reduced to 6 μL/well and the ATP detection reagent was reduced to 4 μL/well in the 1536-well assay plates. […] The 100 trophozoites/well density was selected for further experiments to reduce the preparation work of Giardia cultures. Following these conditions, a DMSO test plate was used to assess the statistical parameters of the assay in the 1,536-well plate format.
Using the above established conditions in 1536-well format, each compound of the invention was tested at 5 concentration points, ranging from 61 nM-38.3 μM in a 1:5 dilution ratio (Inglese, J., D. S. Auld, A. Jadhav, R. L. Johnson, A. Simeonov, A. Yasgar, W. Zheng, and C. P. Austin. 2006. Quantitative high-throughput screening: a titration-based approach that efficiently identifies biological activities in large chemical libraries. Proc Natl Acad Sci USA 103:11473-8).

[3] = tested on: G. lamblia WB trophozoite; test: Giardia viability (ATP content) assay in 96-well format; type: cell-based, Giardia lamblia
Procedure: Giardia trophozoites were plated at a density of 2500 cells/well in 120 μL media in sterile 96-well black clear-bottom assay plates. Mnz was serially diluted from 100 mM stock solution 1:4 in DMSO and then 0.5 μL/well of Mnz titrations or DMSO control were transferred in duplicates to the assay wells using a multichannel pipette. The assay plates were covered with plastic low-evaporation lids and individually sealed with anaerobic generators (Type A Bio-Bag, BD Diagnostics) to create anaerobic growth environment. The sealed Bio-Bags were incubated at 37° C. for indicated periods. Following incubation, 80 μL/well of the ATPLite reagent (PerkinElmer) was added to the assay plates for one-step lysis and ATP level detection. The plates were centrifuged briefly (1000 RPM, 30 seconds) and incubated at room temperature for 20 min. The luminescent signals of assay plates were measured on a ViewLux plate reader (PerkinElmer). Signal-to-basal (S/B) ratios and Z′ factors were calculated from 8 wells containing 0.42% DMSO (total signal) and 8 wells containing 41.7 μM Mnz (basal signal).
A commercially available ATP detection kit to measure the viability of G. lamblia after compound treatment. […] The DMSO tolerance of trophozoites was assessed in this assay as DMSO is used to dissolve the compounds in the library. […]

CHO cells [4] = test: CHO cell cytotoxicity assay in 1536-well format (ATP content counter-screen); type: cell-based, Chinese hamster; conditions: for CHO Efficacy: percent reduction in ATP levels compared with 38.3 mM camptothecin at maximal compound concentration; for Emax: Cricetulus griseus, CHO, 48 h, percent reduction in ATP levels compared with 38.3 µM camptothecin at maximal compound concentration, read-out: CHO Efficacy
CHO cells [5] = test: as above; type: cell-based, Chinese hamster; conditions: concentration at which 50% of DMSO control ATP levels are detected, 48 hours
Procedure: For the viability assay in 1536-well format, 2 μL media was dispensed per well into 1536-well white solid-bottom plates using Multidrop Combi dispenser. Subsequently, 23 nL/well compound solutions or DMSO controls were dispensed to the assay plates via a pintool workstation. The Chinese hamster ovary (CHO) cells were grown in T225 flasks to 70% confluence under a standard cell culture condition (ATCC), detached with 0.25% Trypsin/EDTA, and seeded at 250 cells/well in 4 μL media (Dulbecco's Modified Eagle Medium, 10% fetal bovine serum, 1× penicillin/streptomycin). The plates were incubated at 37° C. with 5% CO2 and 95% humidity for 48 hours. Subsequently, ATP content was measured following the addition of 4 μL/well of ATPLite reagent and a 20 min incubation on a ViewLux plate reader.
Data from the CHO cell counter-screen underwent the same initial analysis, with the exception that raw luminescence counts were normalized relative to DMSO only wells (0% activity) and 38.3 μM camptothecin treated wells (100% activity).
CHO cells, commonly used in high throughput compound screening, were selected to determine the cytotoxicity of the compounds towards a mammalian cell line.

[6] = G. lamblia GS isolate, purchased powder samples
[7] = Giardia duodenalis, G. lamblia GS isolate, purchased powder samples, read-out: ATP Content IC50
[8] = G. lamblia GS isolate, purchased powder samples, read-out: ATP Content IC50
[9] = Giardia duodenalis, Table 2, screen, read-out: Giardia GS IC50

Compound | ATP Content Efficacy (G. lamblia GS isolate; [6]) [%] | IC50 (G. lamblia GS isolate; [7]) [nM] | MBC ([1]; Giardia duodenalis, 72 h) [µM] | IC50 ([2]; Giardia duodenalis) [nM] | CHO Efficacy (CHO cells [4]) [%] | IC50 (G. lamblia GS isolate; [8]) [nM] | IC50 (CHO cells [5]) [nM] | IC50 (Giardia WB) [nM] | Giardia WB Efficacy (Giardia WB) [%] | IC50 [2] [nM] | Emax (CHO cells [4]) [%] | IC50 (CHO cells [5]; Cricetulus griseus, CHO) [nM] | Emax (Giardia WB; Giardia) [%] | IC50 (Giardia WB; Giardia) [nM] | IC50 (G. lamblia GS isolate; [9]) [nM] | also measured
CC(C)C[C@H](NC(=O)[C@H](Cc1ccccc1)NC(=O)c1cnccn1)B(O)O [Bortezomib] | 98.5 | 60 | 0.51 (≈ 0.196 µg/mL) | 130 |  |  |  |  |  |  |  |  |  |  |  | 
Cc1ncc([N+](=O)[O-])n1CCO [Metronidazole] | 99.7 | 1600 | 7.7 (≈ 1.32 µg/mL) | 2200 |  |  |  |  |  |  |  |  |  |  |  | EC50 (Giardia WB; Giardia, 100 cells/well Giardia density): 2900 nM; EC50 (Giardia WB; Giardia, 200 cells/well Giardia density): 2900 nM; EC50 (Giardia WB; Giardia, 300 cells/well Giardia density): 2100 nM; ATP content relative to DMSO control values ([3]; 41.7 μM Mnz treatment, all time points tested (FIG. 1a)): < 5%; IC50 ([3]; Giardia duodenalis, 96-well format, 48 hr (FIG. 1c), read-out: IC50 of inhibition of the ATP content signal): 2100 nM
O=[N+]([O-])c1ccc([As](=O)(O)O)cc1 [Nitarsone] | 99.6 |  |  |  | −13.5 | 900 | > 100000 | 430 | 97.0 | 1200 |  |  |  |  |  | IC50 (G. lamblia GS isolate; Table 2, screen, read-out: Giardia GS IC50): 1260 nM; MBC [1]: 2.6 µM
O=C(Nc1ccccc1)c1cc([N+](=O)[O-])ccc1Cl [GW9662] | 99.2 | 12700 | 208 (≈ 57.5 µg/mL) | 32900 |  |  |  |  |  |  | 8.5 | > 100000 | 86.4 | 6870 |  | 
Nc1ncn([C@H]2C[C@H](O)[C@@H](CO)O2)c(=O)n1 [Decitabine, 5-Aza-2′-deoxycytidine] | 95.1 | 150 | 2.6 (≈ 0.593 µg/mL) | 70 |  |  |  |  |  |  | -52.2 | 24400 | 81.2 | 970 | 100 | 
CO[C@@H]1[C@H](OC(=O)/C=C/C=C/C=C/C=C/C(=O)O)CC[C@]2(CO2)[C@H]1[C@@]1(C)O[C@@H]1CC=C(C)C [Fumagillin] | 98.9 | 2 | 0.257 (≈ 0.118 µg/mL) | 3 |  |  |  |  |  |  | -1.9 | > 100000 | 83.4 | 10 | 2 | 
COC(=O)N/N=C/c1c[n+]([O-])c2ccccc2[n+]1[O-] [Carbadox] | 99.4 | 240 | 4.6 (≈ 1.21 µg/mL) | 290 |  |  |  |  |  |  | 6.3 | > 100000 | 86.6 | 5460 | 2830 | 
N#Cc1cc([N+](=O)[O-])c2sc(C(N)=O)[n+]([O-])c2c1 [BTO-1] | 99.1 |  |  |  | 32.2 | 2000 | 68800 | 1730 | 72.3 | 9300 |  |  |  |  |  | 
hydroxocobalamin acetate [Hydroxocobalam in Acetate] | 98.4 |  |  |  | 16.1 | 78300 | > 100000 | 13700 | 92.2 | 54200 |  |  |  |  |  | MBC [1]: >208 µM
